Activity calls are given as the source filed them.
Key:
Plasmodium falciparum [1] = experiment: Antiplasmodial activity against synchronized Plasmodium falciparum 3D7 assessed as arrest in parasite development at trophozoite stage at 3 times IC50 after 24 to 48 hrs by Giesma-staining based light microscopic analysis; assay type: functional, organism-based; conditions: time 24-48 hrs
Erythrocyte = experiment: Hemolytic activity in human RBC at 100 uM incubated for 2 hrs by microplate reader analysis; assay type: toxicity, cell-based
Plasmodium falciparum [2] = experiment: Antimalarial activity against chloroquine-sensitive Plasmodium falciparum 3D7 infected in RBC incubated for 50 hrs by SYBR green I staining based microplate reader assay; assay type: functional, organism-based; conditions: 3D7, Erythrocyte
Plasmodium falciparum [3] = experiment: Antimalarial activity against chloroquine-resistant Plasmodium falciparum W2 infected in RBC incubated for 50 hrs by SYBR green I staining based microplate reader assay; assay type: functional, organism-based; conditions: W2, Erythrocyte
[4] = Cytotoxicity against human […] cells incubated for 24 hrs by MTT assay; assay type: toxicity, cell-based
Falcipain 2 = biological target: T1, Falcipain 2 (Plasmodium falciparum, UniProt Q9N6S8); experiment: Inhibition of Plasmodium falciparum FP2 using Z-Leu-Arg-AMC as substrate preincubated for 30 mins followed by substrate addition and measured for 30 mins by spectrofluorometer analysis
T1 sequence (Q9N6S8 whole entry): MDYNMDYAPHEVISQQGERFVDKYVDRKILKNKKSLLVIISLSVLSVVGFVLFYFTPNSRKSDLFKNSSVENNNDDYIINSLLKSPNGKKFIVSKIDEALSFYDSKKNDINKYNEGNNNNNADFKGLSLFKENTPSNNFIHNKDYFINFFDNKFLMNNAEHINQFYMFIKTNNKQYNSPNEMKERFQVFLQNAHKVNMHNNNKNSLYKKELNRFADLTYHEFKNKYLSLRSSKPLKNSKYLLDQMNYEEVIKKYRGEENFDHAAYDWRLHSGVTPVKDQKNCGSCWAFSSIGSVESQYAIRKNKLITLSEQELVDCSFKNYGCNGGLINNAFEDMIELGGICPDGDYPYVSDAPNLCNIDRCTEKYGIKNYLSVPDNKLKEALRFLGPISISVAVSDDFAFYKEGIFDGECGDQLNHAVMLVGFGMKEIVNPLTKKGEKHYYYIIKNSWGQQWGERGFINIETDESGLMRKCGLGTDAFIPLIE

[5] = Cytotoxicity against African green monkey Vero cells at 1000 uM; assay type: toxicity, cell-based; conditions: chlorocebus sabaeus
Falcipain-3 = biological target: T2, Falcipain-3 (Plasmodium falciparum 3D7, UniProt Q8IIL0); experiment: Inhibition of Plasmodium falciparum FP3 using Z-Leu-Arg-AMC as substrate preincubated for 30 mins followed by substrate addition and measured for 30 mins by spectrofluorometer analysis
T2 sequence (Q8IIL0 whole entry): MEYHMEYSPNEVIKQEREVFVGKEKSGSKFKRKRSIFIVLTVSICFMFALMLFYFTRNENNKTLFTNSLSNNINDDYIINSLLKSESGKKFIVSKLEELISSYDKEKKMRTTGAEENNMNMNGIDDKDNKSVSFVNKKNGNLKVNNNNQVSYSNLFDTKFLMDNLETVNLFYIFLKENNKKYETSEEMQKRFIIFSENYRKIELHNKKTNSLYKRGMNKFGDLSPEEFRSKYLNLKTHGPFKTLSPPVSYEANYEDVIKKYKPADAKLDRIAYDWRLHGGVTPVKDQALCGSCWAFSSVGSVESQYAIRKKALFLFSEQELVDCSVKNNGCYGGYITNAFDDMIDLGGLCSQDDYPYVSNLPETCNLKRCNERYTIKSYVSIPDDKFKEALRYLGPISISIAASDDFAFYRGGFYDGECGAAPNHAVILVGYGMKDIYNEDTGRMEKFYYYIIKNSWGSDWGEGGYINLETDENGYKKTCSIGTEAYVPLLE

Plasmodium falciparum [6] = experiment: Antimalarial activity against Plasmodium falciparum 3D7; assay type: functional, organism-based
Plasmodium falciparum [7] = experiment: Antimalarial activity against Plasmodium falciparum K1; assay type: functional, organism-based
Plasmodium yoelii [8] = experiment: Antimalarial activity against Plasmodium yoelii N67 infected in Swiss mouse assessed as parasitemia suppression at 12.5 mg/kg/day, po measured on day 4; assay type: functional; conditions: time 4 day
Plasmodium yoelii [9] = experiment: Antimalarial activity against Plasmodium yoelii N67 infected in Swiss mouse assessed as curative rate at 12.5 mg/kg/day, po measured on day 28; assay type: functional; conditions: time 28 day
Plasmodium falciparum [10] = experiment: Antimalarial activity against chloroquine-sensitive Plasmodium falciparum 3D7 incubated for 72 hrs by MSF assay; assay type: functional, organism-based; conditions: 3D7, 72 h
Plasmodium falciparum [11] = experiment: Antimalarial activity against chloroquine-sensitive Plasmodium falciparum K1 incubated for 72 hrs by MSF assay; assay type: functional, organism-based; conditions: K1, 72 h

SMILES | Activity (Plasmodium falciparum [1]) | Activity (Erythrocyte) | IC50 (Plasmodium falciparum [2]) | IC50 (Plasmodium falciparum [3]) | IC50 at 24 h [4] | IC50 (Falcipain 2) | Activity [5] | IC50 (Falcipain-3) | further results
Oc1ccccc1C(c1ccc(OC(F)(F)F)cc1)N1CCN(c2ccnc3cc(Cl)ccc23)CC1 (stereo not drawn) | Active | Toxic | 740 nM | 1240 nM | 104 µM | 4.8 µM | Non-Toxic | 4.7 µM | –
COc1cccc(C(c2ccc(F)c(F)c2)N2CCN(c3ccnc4cc(Cl)ccc34)CC2)c1O (stereo not drawn) | Active | Toxic | 1310 nM | 1400 nM | 17.9 µM | 10.4 µM | Non-Toxic | 10.8 µM | –
COc1cccc(C(c2ccc(F)cc2)N2CCN(c3ccnc4cc(Cl)ccc34)CC2)c1O (stereo not drawn) | – | Toxic | 1540 nM | – | – | – | – | – | –
COc1cccc(C(c2ccc(F)c(Cl)c2)N2CCN(c3ccnc4cc(Cl)ccc34)CC2)c1O (stereo not drawn) | – | Toxic | 1460 nM | – | – | – | – | – | –
Oc1ccccc1C(c1ccc(C(F)(F)F)cc1)N1CCN(c2ccnc3cc(Cl)ccc23)CC1 (stereo not drawn) | – | Toxic | 1410 nM | – | – | – | – | – | –
Cc1cc(N2CCN(C(c3ccc(Cl)c(Cl)c3)c3ccccc3O)CC2)n2ncnc2n1 (stereo not drawn) | – | Toxic | 3330 nM | – | – | – | – | – | –
COc1ccc(C(c2ccccc2O)N2CCN(c3ccnc4cc(Cl)ccc34)CC2)cc1 (stereo not drawn) | – | Toxic | 1620 nM | – | – | – | – | – | –
Cc1ccc(C(c2ccccc2O)N2CCN(c3cc(C)nc4ncnn34)CC2)cc1 (stereo not drawn) | – | Toxic | > 25000 nM | – | – | – | – | – | –
COc1ccc(C(c2ccccc2O)N2CCN(c3cc(C)nc4ncnn34)CC2)cc1 (stereo not drawn) | – | Toxic | > 25000 nM | – | – | – | – | – | –
Cc1cc(N2CCN(C(c3ccc(F)cc3)c3ccccc3O)CC2)n2ncnc2n1 (stereo not drawn) | – | Toxic | 34300 nM | – | – | – | – | – | –
Cc1ccc(C(c2ccccc2O)N2CCN(c3ccnc4cc(Cl)ccc34)CC2)cc1 (stereo not drawn) | Active | Toxic | 1060 nM | 1280 nM | 134 µM | 6.1 µM | Non-Toxic | 6.7 µM | –
COc1ccc(C(c2cccc(OC)c2O)N2CCN(c3ccnc4cc(Cl)ccc34)CC2)cc1 (stereo not drawn) | – | Toxic | 1090 nM | 2600 nM | 214 µM | 7.1 µM | Non-Toxic | 7.8 µM | –
CC(C)(C)NCc1ccc(Nc2ccnc3cc(Cl)ccc23)cc1O [GSK-369796] | – | – | – | – | – | – | – | – | IC50 (Plasmodium falciparum [6]): 11 nM; IC50 (Plasmodium falciparum [7]): 13 nM
COc1cccc(C(c2ccc(OC(F)(F)F)cc2)N2CCN(c3ccnc4cc(Cl)ccc34)CC2)c1O (stereo not drawn) | – | Toxic | 1470 nM | – | – | – | – | – | –
Oc1ccccc1C(c1ccc(F)c(F)c1)N1CCN(c2ccnc3cc(Cl)ccc23)CC1 (stereo not drawn) | Active | Toxic | 740 nM | 1050 nM | 188 µM | 3.9 µM | Non-Toxic | 4.9 µM | –
Cc1cc(N2CCN(C(c3ccc(F)c(F)c3)c3ccccc3O)CC2)n2ncnc2n1 (stereo not drawn) | – | Toxic | 6870 nM | – | – | – | – | – | –
COc1cccc(C(c2ccc(Cl)c(Cl)c2)N2CCN(c3ccnc4cc(Cl)ccc34)CC2)c1O (stereo not drawn) | Active | Toxic | 1060 nM | 660 nM | 172 µM | 4.6 µM | Non-Toxic | 5.9 µM | –
CCN1CCN(CC(CC(C)C)Nc2ccnc3cc(Cl)ccc23)CC1 (stereo not drawn) | – | – | – | – | – | – | – | – | Activity (Plasmodium yoelii [8]): 100%; Activity (Plasmodium yoelii [9]): 100%; IC50 (Plasmodium falciparum [10]): 57 nM; IC50 (Plasmodium falciparum [11]): 97.8 nM
CCN(CC)CCCC(C)Nc1ccnc2cc(Cl)ccc12 (stereo not drawn) [CHLOROQUINE] | – | Toxic | – | – | – | – | – | – | –
Oc1ccccc1C(c1ccc(F)c(Cl)c1)N1CCN(c2ccnc3cc(Cl)ccc23)CC1 (stereo not drawn) | Active | Toxic | 1200 nM | 460 nM | 139 µM | 8.7 µM | Non-Toxic | 10.1 µM | –
COc1cccc(C(c2ccc(C)cc2)N2CCN(c3ccnc4cc(Cl)ccc34)CC2)c1O (stereo not drawn) | Active | Toxic | 1650 nM | – | – | – | – | – | –
COc1cccc(C(c2ccc(C(F)(F)F)cc2)N2CCN(c3ccnc4cc(Cl)ccc34)CC2)c1O (stereo not drawn) | Active | Toxic | 530 nM | 3290 nM | 32.9 µM | 5.4 µM | Non-Toxic | 6.2 µM | –

From ChEMBL document CHEMBL5620389, “Development of diphenylmethylpiperazine hybrids of chloroquinoline and triazolopyrimidine using Petasis reaction as new cysteine proteases inhibitors for malaria therapeutics” (Eur J Med Chem, 2023)
